Data from patent US5733896A, “N-(3-fluoro-2-phosphonylmethoxypropyl) derivatives of purine and pyrimidine heterocyclic bases, their preparation and use” (priority 1990, dated 1998).
≈ marks a conversion by molar mass, not a printed value. Like-named read-outs stand apart in the source and are kept apart here.

Columns and labels:
HIV-1 = assay: Effect on multiplication of HIV-1 in tissue cultures of MT-4 cells (suppression of cytopathogenic effect); format: cell-based
Excerpt: (§1) Effect of compounds of the general formula I on multi-
(§2) plication of HIV-1 in tissue cultures of MT-4 cells
^a Dose, suppressing by 50% the cytopatogenic effect of HIV1 in MT4

[1] = Cytotoxicity: dose decreasing the viability of MT4 cells to one half; format: cell-based; details: human, mt-4 cells
Excerpt: as §1, §2
^b dose, decreasing the viability of MT4 cells to one half;

MSV-induced tumor = assay: Effect on the evolution of an MSV-induced tumor in newborn NMRI mice; format: in vivo
Excerpt: Effect of compounds of the general formula I on the evolution
of an MSV-induced tumor in newborn NMRI mice

[2] = tested on: retroviruses, such as HIV; details: cited from earlier work
HIV = details: cited from earlier work
Moloney sarcoma virus = details: experimental animals; cited from earlier work
murine leukemia virus = details: experimental animals; cited from earlier work
[3] = tested on: simian immunodefficiency virus (SIV); details: experimental animals; cited from earlier work
[4] = Human immunodeficiency virus 1, MT4, HIV-1, MT-4 cells, read-out: ED50 (dose, suppressing by 50% the cytopatogenic effect of HIV1 in MT4 cells)
[5] = read-out: CD50 (dose, decreasing the viability of MT4 cells to one half)

| SMILES | SI (ratio CD50/ED50) (HIV-1; HIV-1, MT-4 cells) | Median day of tumor formation (MSV-induced tumor; dose 1 mg/kg/day) | Median survival time (MSV-induced tumor; dose 1 mg/kg/day) [days] | Median day of tumor formation (MSV-induced tumor; dose 5 mg/kg/day) | Median survival time (MSV-induced tumor; dose 5 mg/kg/day) [days] | Median day of tumor formation (MSV-induced tumor; dose 20 mg/kg/day) | effect on HIV in tissue cultures (HIV) | further results |
| --- | --- | --- | --- | --- | --- | --- | --- | --- |
| Nc1ncnc2c1ncn2CC(CF)OCP(=O)(O)O (racemic) [Compound 1, 9-(RS)-(3-fluoro-2-phosphonylmethoxypropyl)-adenine] | > 90 | 5.8 | 10.9 | 7.5 | 14.4 | > 13 |  | EC50 (HIV-1; [4]): 11.2 µg/mL (≈ 36.7 µM); CC50 [1, 5]: > 1000 µg/mL |
| Nc1nc2c(ncn2CC(CF)OCP(=O)(O)O)c(=O)[nH]1 (racemic) [Compound 2] | 50 | 5.2 | 11.7 | 8.5 | 12.5 | > 13 |  | EC50 (HIV-1; [4]): 4.7 µg/mL (≈ 14.6 µM); CC50 [1, 5]: 233 µg/mL (≈ 725 µM); Median survival time (MSV-induced tumor; dose 20 mg/kg/day): 10 days |
| Cc1cn([C@H]2C=C[C@@H](CO)O2)c(=O)[nH]c1=O [2',3'-dideoxy-2',3'-didehydrothymidine] |  |  |  |  |  |  |  | efficiency in the treatment of experimental animals [2]: efficient in the treatment of experimental animals |
| Nc1ccn([C@H]2CC[C@@H](CO)O2)c(=O)n1 [2',3'-dideoxycytidine] |  |  |  |  |  |  |  | efficiency in the treatment of experimental animals [2]: efficient in the treatment of experimental animals |
| Cc1cc(-c2ccc(/N=N/c3ccc4c(S(=O)(=O)O)cc(S(=O)(=O)O)c(N)c4c3O)c(C)c2)ccc1/N=N/c1ccc2c(S(=O)(=O)O)cc(S(=O)(=O)O)c(N)c2c1O [Evans Blue] |  |  |  |  |  |  | significant effects in tissue cultures |  |
| Nc1ncnc2c1ncn2CCOCP(=O)(O)O [IX, reference compound] | 7.2 | 6.1 | 14.7 | 10.1 | 17.2 | > 13 | have proven its effect | EC50 (HIV-1; Human immunodeficiency virus 1, MT4, read-out: ED50 (dose, suppressing by 50% the cytopatogenic effect of HIV1 in MT4 cells)): 2 µg/mL (≈ 7.32 µM); CC50 [1]: 14.2 µg/mL (≈ 52 µM); effect on Moloney sarcoma virus (Moloney sarcoma virus): have proven its effect; effect on murine leukemia virus (murine leukemia virus): have proven its effect; effect on simian immunodefficiency virus (SIV) [3]: have proven its effect |
| O=C(O)C1=CC(=C(c2ccc(O)c(C(=O)O)c2)c2ccc(O)c(C(=O)O)c2)C=CC1=O [aurine-tricarboxylic acid] |  |  |  |  |  |  | significant effects in tissue cultures |  |
